Experimental data reported in paper PMC12445474, “Conservation of heat stress acclimation by the IPK2-type kinases that control the synthesis of the inositol pyrophosphate 4/6-InsP7 in land plants” (PLOS Genetics, 2025).
Values belong to the molecule of their own block, whether it stands above or below them.

Assays:
AtIPK2β [1] = target: T1, AtIPK2β (Arabidopsis thaliana, UniProt Q9FLT2); assay: isothermal titration calorimetry; format: binding
T1 construct: gene IPK2b; full-length CDS in pET28b, N-terminal His8-MBP-TEV, E. coli BL21 (RIL); tag removed by TEV for ITC, His8-MBP fusion for kinase assays
T1 sequence (Q9FLT2 1-300): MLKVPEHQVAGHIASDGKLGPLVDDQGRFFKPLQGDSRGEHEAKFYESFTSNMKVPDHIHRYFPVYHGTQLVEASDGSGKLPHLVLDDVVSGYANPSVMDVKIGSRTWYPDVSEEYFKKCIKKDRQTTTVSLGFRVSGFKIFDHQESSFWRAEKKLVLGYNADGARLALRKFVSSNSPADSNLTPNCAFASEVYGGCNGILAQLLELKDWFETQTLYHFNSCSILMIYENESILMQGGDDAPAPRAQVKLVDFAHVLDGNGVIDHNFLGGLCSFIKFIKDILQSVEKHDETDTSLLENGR

AtIPK2α = target: T2, AtIPK2α (Arabidopsis thaliana, UniProt Q9LY23); assay: isothermal titration calorimetry; format: binding
T2 construct: gene IPK2a; full-length CDS in pET28b, N-terminal His8-MBP-TEV, E. coli BL21 (RIL); tag removed by TEV for ITC, His8-MBP fusion for kinase assays
T2 sequence (Q9LY23 1-286): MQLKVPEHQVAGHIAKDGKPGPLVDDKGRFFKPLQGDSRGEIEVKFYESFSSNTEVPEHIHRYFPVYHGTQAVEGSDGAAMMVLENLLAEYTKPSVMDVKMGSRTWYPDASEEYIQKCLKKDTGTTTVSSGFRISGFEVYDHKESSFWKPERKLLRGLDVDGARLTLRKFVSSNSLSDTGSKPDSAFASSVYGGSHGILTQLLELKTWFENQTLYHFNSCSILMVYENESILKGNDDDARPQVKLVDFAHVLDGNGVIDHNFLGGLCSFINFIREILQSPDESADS

MpIPMK [2] = target: T3, MpIPMK (Marchantia polymorpha, UniProt A0A2R6WAL0); assay: in vitro kinase assay, PAGE and CE-MS of products; format: biochemical; settings: 12.5 mM ATP, 10 nmol InsP6, 5 mM MgCl2, 20 mM HEPES pH 7.5, 1 mM DTT, 37 °C, 12 h
T3 construct: gene MARPO_0118s0021; full-length CDS in pET28b, N-terminal His8-MBP fusion, E. coli, Ni-NTA purified in PBS; tag kept

AtHSFA1b [3] = target: T4, AtHSFA1b (Arabidopsis thaliana, UniProt O81821 1-481); assay: EMSA; 50-200 nM protein, 250 nM probe; EMSA: 250 nM FAM probe, 15 min on ice (30 min pre-incubation with partner or InsP), 6% native PAGE; binding buffer not stated (proteins purified in PBS pH 7.4); settings: protein: recombinant; tags: N-terminal His8-MBP; chain copies: 3; label: 5' FAM on strand 1; 5' overhang 4 nt at both ends, 18 bp duplex
T4 sequence (O81821 whole entry): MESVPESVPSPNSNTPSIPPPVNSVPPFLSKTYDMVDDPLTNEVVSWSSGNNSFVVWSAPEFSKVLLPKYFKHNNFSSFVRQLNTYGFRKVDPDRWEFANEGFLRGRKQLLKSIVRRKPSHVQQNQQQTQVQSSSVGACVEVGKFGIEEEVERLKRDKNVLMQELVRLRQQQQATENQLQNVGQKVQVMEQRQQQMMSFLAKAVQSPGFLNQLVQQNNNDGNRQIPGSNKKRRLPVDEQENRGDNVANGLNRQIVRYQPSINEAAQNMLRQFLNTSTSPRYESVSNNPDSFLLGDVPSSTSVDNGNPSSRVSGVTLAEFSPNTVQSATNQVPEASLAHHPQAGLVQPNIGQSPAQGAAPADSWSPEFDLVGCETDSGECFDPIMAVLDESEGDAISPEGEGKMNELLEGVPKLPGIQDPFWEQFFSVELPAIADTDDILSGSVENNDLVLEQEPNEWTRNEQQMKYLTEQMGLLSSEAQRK

AtHSFA1b [4] = target: T4, AtHSFA1b; assay: EMSA; 25-200 nM protein, 250 nM probe; EMSA: 250 nM FAM probe, 15 min on ice (30 min pre-incubation with partner or InsP), 6% native PAGE; binding buffer not stated (proteins purified in PBS pH 7.4); settings: protein: recombinant; tags: N-terminal His8-MBP; chain copies: 3; label: 5' FAM on strand 1; 5' overhang 4 nt at both ends, 26 bp duplex
MpIPMK [5] = target: T5, MpIPMK (Marchantia polymorpha (Tak-1), UniProt A0A2R6WAL0 1-319); assay: EMSA; 50-200 nM protein, 250 nM probe; EMSA: 250 nM FAM probe, 15 min on ice (30 min pre-incubation with partner or InsP), 6% native PAGE; binding buffer not stated (proteins purified in PBS pH 7.4); settings: protein: recombinant; tags: N-terminal His8-MBP; label: 5' FAM on strand 1; 5' overhang 4 nt at both ends, 26 bp duplex
T5 sequence: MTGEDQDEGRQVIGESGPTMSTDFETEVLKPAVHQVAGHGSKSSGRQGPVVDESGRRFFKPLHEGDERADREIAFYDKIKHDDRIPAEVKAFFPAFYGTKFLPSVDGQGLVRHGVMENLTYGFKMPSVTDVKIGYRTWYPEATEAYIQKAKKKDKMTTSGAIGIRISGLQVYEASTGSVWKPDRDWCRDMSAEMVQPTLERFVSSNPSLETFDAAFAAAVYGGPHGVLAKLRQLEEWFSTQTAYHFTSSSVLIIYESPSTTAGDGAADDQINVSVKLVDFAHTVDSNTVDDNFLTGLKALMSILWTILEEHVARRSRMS

AtIPK2β [6] = target: T6, AtIPK2β (Arabidopsis thaliana (Col-0), UniProt Q9FLT2 1-300); assay: as above; settings: protein: recombinant; tags: N-terminal His8-MBP-TEV; label: 5' FAM on strand 1; 5' overhang 4 nt at both ends, 26 bp duplex
T6 sequence: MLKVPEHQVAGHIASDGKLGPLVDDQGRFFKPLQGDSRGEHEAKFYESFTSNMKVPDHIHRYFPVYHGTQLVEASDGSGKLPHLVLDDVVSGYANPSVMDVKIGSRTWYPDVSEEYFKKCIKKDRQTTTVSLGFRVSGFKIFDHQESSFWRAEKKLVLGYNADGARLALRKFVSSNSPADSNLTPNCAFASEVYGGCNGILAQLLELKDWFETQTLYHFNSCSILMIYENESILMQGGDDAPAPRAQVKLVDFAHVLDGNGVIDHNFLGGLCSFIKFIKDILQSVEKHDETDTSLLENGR

- Kd (AtIPK2β [1]): ~6 µM
- Kd (AtIPK2α): ~7 µM
Molecule: O=P(O)(O)O[C@@H]1[C@H](O)[C@H](O)[C@@H](OP(=O)(O)O)[C@H](OP(=O)(O)O)[C@H]1O [Ins(1,4,5)P3]

- Kd (AtIPK2β [1]): ~0.5 µM
- Kd (AtIPK2α): ~2 µM
Molecule: O=P(O)(O)O[C@H]1[C@H](OP(=O)(O)O)[C@@H](OP(=O)(O)O)[C@H](OP(=O)(O)O)[C@@H](OP(=O)(O)O)[C@H]1OP(=O)(O)O [InsP6]
- kinase activity (MpIPMK [2]): demonstrating that MpIPMK phosphorylates InsP6 in vitro

B1: HSE∆ (dsDNA)
DNA 1: CTCGGTCGATCGATGCATGATG
DNA 2: AAACCATCATGCATCGATCGAC
- binding result (AtHSFA1b [3]): no binding

B2: FAM-HSE (AtHSP18.1 promoter element) (dsDNA)
DNA 1: CTCGGTCGATCGAGAAGCTTCTGCATGATG
DNA 2: AAACCATCATGCAGAAGCTTCTCGATCGAC
- binding result (AtHSFA1b [4]): binds
- binding result (MpIPMK [5]): no binding
- binding result (AtIPK2β [6]): no binding
